Here are results for 2 compounds from US11402382B2, “Diagnostic and therapeutic methods for cancer” (Genentech, Inc., priority 2017, dated 2022).

This experiment has as its system previously untreated metastatic renal cell carcinoma (mRCC). Put plainly: IMmotion150: PFS and ORR in PD-L1 IHC and gene expression signature (Teff, Angio, Myeloid) subgroups. It counts as in vivo, human. The note with it: for PFS HR (95% CI) vs Sun: unstratified. How it is done: PD-L1 status on tumor-infiltrating immune cells (IC) was assessed in the phase II IMmotion150 study by immunohistochemistry (IHC) using the anti-human PD-L1 rabbit monoclonal antibody, SP142, and scored using an identical IHC scoring criteria (IC1/2/3=≥1% of tumor-infiltrating lymphocytes are PD-L1-positive; IC2/3=≥5% of tumor-infiltrating lymphocytes are PD-L1-positive) (n=297). PD-L1 status can be assessed as described in International Patent Application Publication Nos. WO 2016/183326 and WO 2016/196298. Mutation evaluations by whole exome sequencing (WES) and gene expression analyses by RNA-Seq (n=263) were also performed. For the gene expression analyses, gene expression levels were evaluated for T effector and IFNγ response (Teff) genes (CD8A, IFNG, PRF1, EOMES, and PD-L1), as well as for angiogenesis-related (Ang) genes (VEGFA, KDR, ESM1, PECAM1, ANGPTL4, and CD34), and myeloid inflammation-related (Myeloid) genes (IL6, CXCL1, CXCL2, CXCL3, CXCL8, and PTGS2). The Teff genes at low expression levels (i.e., below the median expression levels of the evaluated Teff genes; “Teff low”) and high expression levels (i.e., at or above the median expression levels of the evaluated Teff genes; “Teff high”) were evaluated in relation to progress-free survival (PFS) per RECIST v.1.1 via Independent Review Facility (IRF) assessment. The Ang genes at low expression levels (i.e., below the median expression levels of the evaluated Ang genes; “Ang low”) and high expression levels (i.e., at or above the median expression levels of the evaluated Ang genes; “Ang high”) were also evaluated in relation to PFS per RECIST v.1.1 via IRF assessment. The Myeloid genes at low expression levels (i.e., below the median expression levels of the evaluated Myeloid genes; “Myeloid low”) and high expression levels (i.e., at or above the median expression levels of the evaluated Myeloid genes; “Myeloid high”) were also evaluated in relation to PFS per RECIST v.1.1 via IRF assessment. To determine the median expression levels, first a Z-score was calculated for the normalized expression of all of the genes in a group. The median level of all the Z-scores across the dataset was used as a reference level to identify biomarker high versus biomarker low subgroups.
Tumor specimens from patients acquired <12 months prior to study treatment were required for enrollment in the study. Tissue was prospectively tested for PD-L1 expression on IC by a central laboratory using the SP142 IHC assay (VENTANA, Tucson, Ariz.). IC staining was defined as follows: any discernible PD-L1 staining of any intensity in IC covering <1% or absent, between ≥1% and <5%, between ≥5% and <10%, or ≥10% of tumor area.
Kaplan-Meier methodology was used to estimate the median PFS for each treatment arm, and Kaplan-Meier curves were produced. The primary analysis was triggered when 140 INV-PFS events occurred among patients treated with atezolizumab+bevacizumab and with sunitinib or among patients treated with atezolizumab alone and with sunitinib, whichever occurred later. […] The stratification factors included prior nephrectomy, tumor PD-L1 status, and MSKCC score and were determined based on data from the electronic case report form; if such data were missing, data collected by the IxRS at the time of randomization were used. Tumor specimens were prospectively tested for PD-L1 expression on ICs by a central laboratory using the SP142 IHC assay (VENTANA, Tucson, Ariz.). IC staining was defined as follows: any discernible PD-L1 staining of any intensity in IC covering <1% or absent (ICO), between ≥1% and <5% (IC1), between ≥5% and <10% (IC2), or ≥10% (IC3) of tumor area occupied by tumor cells, associated intratumoral, and contiguous peri-tumoral desmoplastic stroma.
Whole transcriptome profiles were generated for 263 patients using TRUSEQ® RNA Access technology (ILLUMINA®). RNAseq reads were first aligned to ribosomal RNA sequences to remove ribosomal reads. […]

Where [1] appears, read: Teff^HighMyeloid^High vs Teff^HighMyeloid^Low.

As for “Atezo: anti-PD-L1 antibody atezolizumab (CAS Registry Number: 1422185-06-5), Genentech, also known as MPDL3280A”, the “PFS HR (95% CI) vs Sunitinib” value (Ang high (Angio^High) subgroup) is on record as 1.46; the “PFS HR (95% CI) vs Sunitinib” value (Ang low (Angio^Low) subgroup) stood at 0.75; the “PFS HR (95% CI) vs Sunitinib” value (Myeloid^High subgroup) was 2.03; the “PFS HR (95% CI) vs Sunitinib” value (Myeloid^Low subgroup) is on record as 0.53; the “PFS HR (95% CI) vs Sunitinib” value (Teff high subgroup (at or above median)) is reported as 0.85; the “PFS HR (95% CI) vs Sunitinib” value (Teff low subgroup (below median)) turned out to be 1.33. Also, the “PFS HR (95% CI) vs Sunitinib” value (Teff^High Myeloid^High subgroup) turned out to be 1.81 and the “PFS HR (95% CI) vs Sunitinib” value (Teff^High Myeloid^Low subgroup) was found to be 0.47. Further, the “PFS HR (95% CI), within arm analysis” value by setting is: (Angio^High vs Angio^Low) 0.74; (Myeloid^High vs Myeloid^Low) 2.98; (Teff^High vs Teff^Low) 0.83; under setting [1], 3.82. In addition, the “PFS HR (95% CI) vs Sun” value (PD-L1 IHC IC1/2/3) was determined as 0.97 and the “PFS HR (95% CI) vs Sun” value (PD-L1 IHC IC2/3) is recorded as 0.54.

Take `CCN(CC)CCNC(=O)c1c(C)[nH]c(/C=C2\C(=O)Nc3ccc(F)cc32)c1C` [Sunitinib, N-[2-(Diethylamino)ethyl]-5-[(Z)-(5-fluoro-2-oxo-1,2-dihydro-3H-indol-3-ylidene)methyl]-2,4-dimethyl-1H-pyrrole-3-carboxamide]: the ORR by setting is: (Angio^High subgroup) 45%; (Angio^Low subgroup) 10%. Besides, the “PFS HR (95% CI), within arm analysis” value (Angio^High vs Angio^Low) is 0.31; the “PFS HR (95% CI), within arm analysis” value (Myeloid^High vs Myeloid^Low) came out at 0.82; the “PFS HR (95% CI), within arm analysis” value (Teff^High vs Teff^Low) is on record as 1.31; the “PFS HR (95% CI), within arm analysis” value under setting [1] worked out at 1.10.
